According to US20030144347A1, “Method for treating autoimmune disease” (priority 2001, published 2003):

Experiments:
Type in all cases: in vivo, human
[1] = test system: patient suffering from rheumatoid arthritis; assay: Case reports: patients suffering from rheumatoid arthritis; conditions: Example 17; before Topamax
Experimental: A patient suffering from rheumatoid arthritis was administered 25 mg per day of topiramate with an increase every 10 days by 25 mg until 25 mg, 3 times per day, was achieved. The patient previously took 3 or 4 tablets per day of lortab, seven 2.5 mg tablets of methotrexate once a week, 200 mg per day of minocycline and 10 mg per day of prednisone.
An adolescent patient suffering from rheumatoid arthritis began taking 15 mg per day of topiramate for one week, which was then increased by 15 mg weekly until 45 mg per day, in three divided dosages of 15 mg each, was reached. The patient previously took 3 to 5 mg of prednisone daily.
A patient suffering from rheumatoid arthritis with a positive rheumatic factor about 3 decades earlier, at which time they also experienced polyarthritis and Renaud's phenomena, was treated with prednisone 40 mg per day for six months and was then weaned off the prednisone after one year. In the ensuing years, psoriasis developed on both elbows which was worse in the winter. They were an avid golfer and experienced painful swelling and stiffness of both wrists and hands, especially the left, and back pain and stiffness. […] They were begun on Topamax 15 mg a day which was increased weekly by 15 mg until 45 mg per day was taken in divided doses.

[2] = test system: patient with rapid mood swings and severe intense itching; assay: Case report: patient with rapid mood swings and severe intense itching; conditions: Example 19
Experimental: A patient presented with rapid mood swings and a complaint of severe intense itching from clothing tags and some clothing, which began over twenty years ago. They were begun on gabapenten which was increased to 300 mg qid. […] Their itching was unchanged. They were begun on Topamax 12.5 mg at bedtime which was increased weekly by 12.5 mg until 50 mg.

[3] = test system: patient suffering from multiple sclerosis; assay: Case reports: patients suffering from multiple sclerosis treated with topiramate; conditions: Example 18; patient's own attempt
Experimental: A patient suffering from multiple sclerosis was administered 15 mg per day of topiramate. The dosage was increased after 15 days to 30 mg per day. At 15 mg, the patient's involuntary stretch rigid response stopped and the patient was able to get out of bed without falling backward when their feet touched the floor for the first time in nine years.
The patient previously took trazadone 100 mg at bedtime, clonazepan 1 mg three times a day, citalapram 40 mg each morning, gabapentrin 600 mg four times a day, and synthroid 25 mcg per day for two years. They had refused steroids and interferon because of side effects.
The Topamax was increased to 15 mg at bedtime and they reported “no bad bladder accidents” and that their leg and foot cramps had disappeared. […] They were discharged on Topamax 15 mg at bedtime along with previous medications. The patient was much improved medically and emotionally.
The patient returned four weeks later walking with a cane, having worked “10 to 14 hours per day and exhausted from my move with little sleep during the past month”. They reported “insatiable itching all over my body wherever my clothes touch the skin” which […] unsuccessfully tried to treat with cetirizine. […] said […] felt “dizzy, weak, Charlie horses in arches of feet and toes, unable to stand for more than 10 minutes before starting to have gait problems, problems sleeping, having trouble mentally and urine leaking”. […] working diagnoses are Axis I Bipolar disorder, not otherwise specified Axis III multiple sclerosis. […]

SMILES: COc1ccc2cc([C@H](C)C(=O)O)ccc2c1 [Naproxen]
- effect on painful swelling and stiffness [1]: ineffective

SMILES: NCC1(CC(=O)O)CCCCC1 [gabapenten]
- mood ([2]; 300 mg qid): a little calmer
- weight gained ([2]; 300 mg qid, in two weeks): five
- itching ([2]; increased to 300 mg qid): unchanged

SMILES: O=C(O)COCCN1CCN(C(c2ccccc2)c2ccc(Cl)cc2)CC1 (centres unmarked) [cetirizine]
- treatment of itching [3]: unsuccessfully
